Consider three compounds from patent US10328012B2, “Methods for treating skin” (AVON PRODUCTS, INC., priority 2015, dated 2019).

Entries after “also recorded” stand apart in the source; their conditions may differ.

The subject of assay [1] is human dermal fibroblast (HDF) cells. As to the kind of experiment: HA in human dermal fibroblasts, daily vs pulsed treatment (Example 17). The conditions noted are these: 12 days; pulsed uses half as much active. Type of assay: cell-based. As to the method: A series of experiments was conducted to assess the effects of different treatment regimens of active ingredients shown in Table 9 on the production of hyaluronic acid (HA) in human dermal fibroblast (HDF) cells. Two different treatment regimens were assessed: (1) active ingredient A applied to cells for 12 consecutive days; and (2) active ingredient applied to cells for 2 consecutive days followed by application of media not containing active ingredient for two consecutive days repeatedly until treatment is applied for 12 consecutive days. […] After reaching about 75% confluence, cells were transferred into DMEM media without FBS, and incubated for 4-6 hours. Different wells were assigned to one of treatment regimens (1)-(2) as described above, with six wells allocated to each treatment regimen. All active ingredients were prepared as emulsions and applied directly to the HDF cells. The specific active ingredients used in each of the two treatment regimens are provided below in Table 10. Following treatment, cells were collected and the amount of hyaluronic acid (HA) secreted from the cells was measured using a commercially available HA assay (available from […] Inc., CO).

Assay [2] deals with Human dermal fibroblast cells. As to the kind of experiment: Pro-collagen I secreted by human dermal fibroblasts, HTRF human pro-collagen I kit (Example 1). Type of assay: cell-based. The conditions noted are these: 0.0001% phytol alone or 1 μM retinol alone for 16 days; decline after day 13 despite continuing treatment. On the procedure: Human dermal fibroblast cells were grown in a 6-well plate in DMEM media (available from CORNING, N.Y.) supplemented with 10% Fetal Bovine Serum (FBS) and L-glutamine (1.5×10^5 cells/plate) overnight. After reaching about 75% confluence, cells were transferred into DMEM media without FBS and incubated for 4-6 hours. Next, the cells were treated with either 0.0001% phytol or 1 μM retinol. Treatment with either phytol alone, or retinol alone was performed in DMEM media without FBS for 16 days. For sequential treatments, the cells were treated with 0.0001% phytol for 6 days followed by 1 μM retinol for 10 days, or with 1 μM retinol for 6 days, followed by 0.0001% phytol for 10 days. Every other day, media were collected and cells were re-treated with phytol or retinol in the same fashion. After treatment, the amount of collagen secreted into the culture media was determined using the HTRF human pro-collagen I kit (available from CISBIO, Inc).

As to `O=C(O)CO` [Glycolic Acid], the “production of hyaluronic acid, pulsed treatment compared with daily treatment” value (from here on “production … compared with daily treatment”) in assay [1] is listed as “only slightly less effective”.

Consider `C/C(=C\CO)CCC[C@H](C)CCC[C@H](C)CCCC(C)C` [Phytol], for which the “pro-collagen I production as a function of treatment time” value in assay [2] is reported as “declines; also recorded: plateau in effectiveness over time”. Moreover, the “production … compared with daily treatment” value in assay [1] is “significantly more production of hyaluronic acid”.

On to `CC1=C(/C=C/C(C)=C/C=C/C(C)=C/CO)C(C)(C)CCC1` [Retinol, reference compound], for which the “pro-collagen I production as a function of treatment time” value in assay [2] was “declines; also recorded: plateau in effectiveness over time”. The “production … compared with daily treatment” value in assay [1] is on record as “significantly more production of hyaluronic acid”.
